We go through eight compounds from ChEMBL document CHEMBL1777785, “A novel approach for predicting P-glycoprotein (ABCB1) inhibition using molecular interaction fields” (J Med Chem, 2011).

Series [1] addresses T1, ATP-dependent translocase ABCB1 (Homo sapiens, UniProt P08183). As to conditions: l5178, 20 min, 100 µM.
In series [2] the target is T1, ATP-dependent translocase ABCB1.

T1 sequence (P08183 whole entry): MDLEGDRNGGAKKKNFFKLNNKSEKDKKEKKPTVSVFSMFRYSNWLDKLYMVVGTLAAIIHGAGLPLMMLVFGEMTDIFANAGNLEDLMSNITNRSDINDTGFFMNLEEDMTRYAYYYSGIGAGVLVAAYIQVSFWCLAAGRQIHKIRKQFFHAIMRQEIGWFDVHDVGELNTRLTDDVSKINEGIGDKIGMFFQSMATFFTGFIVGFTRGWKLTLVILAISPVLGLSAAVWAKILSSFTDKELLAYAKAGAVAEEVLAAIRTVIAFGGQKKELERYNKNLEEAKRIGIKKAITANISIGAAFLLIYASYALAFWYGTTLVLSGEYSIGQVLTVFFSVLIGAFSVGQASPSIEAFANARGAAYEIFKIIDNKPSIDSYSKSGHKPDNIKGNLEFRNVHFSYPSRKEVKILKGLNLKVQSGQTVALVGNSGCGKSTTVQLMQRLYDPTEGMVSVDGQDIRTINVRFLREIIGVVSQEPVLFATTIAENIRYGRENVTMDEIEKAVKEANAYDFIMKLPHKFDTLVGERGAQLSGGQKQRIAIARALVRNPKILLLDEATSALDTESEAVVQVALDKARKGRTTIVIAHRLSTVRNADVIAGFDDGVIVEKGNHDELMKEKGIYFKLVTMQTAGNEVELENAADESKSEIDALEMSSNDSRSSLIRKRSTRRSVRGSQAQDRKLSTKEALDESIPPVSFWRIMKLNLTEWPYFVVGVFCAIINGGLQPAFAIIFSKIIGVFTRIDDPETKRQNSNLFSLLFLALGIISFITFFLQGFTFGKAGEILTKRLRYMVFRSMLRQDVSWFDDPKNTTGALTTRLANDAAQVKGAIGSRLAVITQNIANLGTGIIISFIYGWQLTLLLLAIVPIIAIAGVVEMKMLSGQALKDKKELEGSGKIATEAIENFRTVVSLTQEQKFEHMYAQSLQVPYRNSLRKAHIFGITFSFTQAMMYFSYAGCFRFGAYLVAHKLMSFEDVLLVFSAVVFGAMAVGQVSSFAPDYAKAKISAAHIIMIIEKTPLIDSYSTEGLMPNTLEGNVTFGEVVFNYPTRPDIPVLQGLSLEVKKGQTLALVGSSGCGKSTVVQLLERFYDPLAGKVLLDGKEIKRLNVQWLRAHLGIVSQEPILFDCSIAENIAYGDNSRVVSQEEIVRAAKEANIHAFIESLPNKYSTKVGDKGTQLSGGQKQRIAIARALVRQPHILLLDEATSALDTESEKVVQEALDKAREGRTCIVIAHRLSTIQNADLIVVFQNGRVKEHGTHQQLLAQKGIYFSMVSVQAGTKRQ

The compound `O=C1Cc2cc(CCN3CCN(c4nsc5ccccc45)CC3)c(Cl)cc2N1` [ZIPRASIDONE] came in with an Alpha max in series [1] of 0.19. Still for that read-out and setting: the value for `C=CCc1ccccc1OCC(O)CNC(C)C` (centres undefined) [ALPRENOLOL] was 0.05; that for `CCN(CC)CCCN(c1ccccc1)C1Cc2ccccc2C1` [APRINDINE] was 0.16.

In series [1], `CCOc1cc(CC(=O)N[C@@H](CC(C)C)c2ccccc2N2CCCCC2)ccc1C(=O)O` [REPAGLINIDE] displayed an Alpha max of 0.35. On the same count and under the same terms, under `CC1(C)S[C@@H]2[C@H](NC(=O)[C@H](C(=O)O)c3ccsc3)C(=O)N2[C@H]1C(=O)O` [TICARCILLIN] stands 0; under `O=C1CCc2ccc(OCCCCN3CCN(c4cccc(Cl)c4Cl)CC3)cc2N1` [ARIPIPRAZOLE], 0.99. Still for that read-out and setting: under `CC(C)[C@H]1CC[C@H](C(=O)N[C@H](Cc2ccccc2)C(=O)O)CC1` [NATEGLINIDE] stands 0. As a reminder, the IC50 is the concentration at which inhibition is half-maximal. A lower IC50 goes with greater potency. Compound `O=C1NCCN1CCN1CCC(c2cn(-c3ccc(F)cc3)c3ccc(Cl)cc23)CC1` [SERTINDOLE] displayed an IC50 in series [2] of 6.5 µM. The compound further had an Alpha max in series [1] of 0.74.
